What was measured:
[1] = Inhibition of PP2A in human red blood cells; type: cell-based
[2] = Inhibition of PP1 in rabbit skeletal muscle; type: tissue-based, Oryctolagus cuniculus, Muscle tissue
[3] = Selectivity ratio of IC50 for rabbit skeletal muscle PP1 over IC50 for human PP2A; type: tissue-based; details: Muscle tissue
[4] = Selectivity ratio of IC50 for rabbit skeletal muscle PP1 over IC50 for bovine brain PP2B; type: tissue-based; details: Muscle tissue
[5] = (§1) Inhibition of bovine brain PP2B; parameters: species or system Bos taurus
Bos taurus = organism: Bos taurus; experiment: as §1

SMILES | IC50 [1] [µM] | IC50 [2] [µM] | Ratio IC50 [3] | Ratio IC50 [4] | IC50 [5] [µM] | IC50 (Bos taurus) [µM]
CC(C)(C)c1ccc(NC(=O)C2C(C(=O)O)[C@H]3CC[C@@H]2O3)cc1 (stereo partly specified) | 11 | 10 | 0.91 | – | – | –
O=C(NCCN1CCOCC1)C1C(C(=O)O)[C@H]2CC[C@@H]1O2 (stereo partly specified) | 43 | 30 | 0.7 | – | – | –
O=C(NCCCc1ccccc1)C1C(C(=O)O)[C@H]2CC[C@@H]1O2 (stereo partly specified) | 25 | 25 | 1 | – | – | –
CCc1ccccc1NC(=O)C1C(C(=O)O)[C@H]2CC[C@@H]1O2 (stereo partly specified) | 24 | 51 | 2.12 | – | – | –
O=C(Nc1ccccc1)C1C(C(=O)O)[C@H]2CC[C@@H]1O2 (stereo partly specified) | 7.7 | 24.3 | 3.2 | – | – | –
O=C(NCc1ccc(F)c(F)c1)C1C(C(=O)O)[C@H]2CC[C@@H]1O2 (stereo partly specified) | 26 | 26 | 1 | – | – | –
O=C(Nc1ccccc1CO)C1C(C(=O)O)[C@H]2CC[C@@H]1O2 (stereo partly specified) | 39 | 36 | 0.92 | – | – | –
Cc1cc(C)c(NC(=O)C2C(C(=O)O)[C@H]3CC[C@@H]2O3)c(C)c1 (stereo partly specified) | 85 | 48 | 0.56 | 0.54 | 89 | –
COc1ccc(NC(=O)C2C(C(=O)O)[C@H]3CC[C@@H]2O3)cc1 (stereo partly specified) | 16 | 15 | 0.94 | – | – | –
O=C(NCc1ccc(C(F)(F)F)cc1)C1C(C(=O)O)[C@H]2CC[C@@H]1O2 (stereo partly specified) | 20 | 16 | 0.8 | – | – | –
O=C(Nc1ccc(N2CCOCC2)cc1)C1C(C(=O)O)[C@H]2CC[C@@H]1O2 (stereo partly specified) | 7.9 | 6.5 | 0.82 | 0.15 | 42 | –
O=C1OC(=O)C2C3CCC(O3)C12 (stereo unspecified) [DEMETHYL-CANTHARIDIN] | 2.69 | 10.3 | 3.8 | 0.33 | 31 | –
Cc1cccc(NC(=O)C2C(C(=O)O)[C@H]3CC[C@@H]2O3)c1C (stereo partly specified) | 18 | 17 | 0.94 | – | – | –
CC(C)(C)c1ccc(NC(=O)C2C(C(=O)O)[C@H]3CC[C@@H]2O3)c(C(C)(C)C)c1 (stereo partly specified) | 8.2 | 8.2 | 1 | – | – | –
C#Cc1cccc(NC(=O)C2C(C(=O)O)[C@H]3CC[C@@H]2O3)c1 (stereo partly specified) | 18 | 17 | 0.94 | – | – | –
O=C(Nc1cccc(CO)c1)C1C(C(=O)O)[C@H]2CC[C@@H]1O2 (stereo partly specified) | 7 | 15 | 2.14 | – | – | –
CN(C)CCCNC(=O)C1C(C(=O)O)[C@H]2CC[C@@H]1O2 (stereo partly specified) | 57 | 43 | 0.75 | – | – | –
O=C(NCc1ccccc1)C1C(C(=O)O)[C@H]2CC[C@@H]1O2 (stereo partly specified) | 12 | 35 | 2.9 | – | – | –
CSc1ccccc1NC(=O)C1C(C(=O)O)[C@H]2CC[C@@H]1O2 (stereo partly specified) | 33 | 23 | 0.7 | – | – | –
CN(C)CCNC(=O)C1C(C(=O)O)[C@H]2CC[C@@H]1O2 (stereo partly specified) | > 100 | 67 | < 0.67 | – | – | –
O=C(NCCCCc1ccccc1)C1C(C(=O)O)[C@H]2CC[C@@H]1O2 (stereo partly specified) | 95 | 75 | 0.79 | – | – | –
O=C(Nc1ccc2ccccc2c1)C1C(C(=O)O)[C@H]2CC[C@@H]1O2 (stereo partly specified) | 15 | 14 | 0.93 | – | – | –
CCCCCCOc1ccc(NC(=O)C2C(C(=O)O)[C@H]3CC[C@@H]2O3)cc1 (stereo partly specified) | 15 | 11 | 0.73 | – | – | –
CSc1ccc(NC(=O)C2C(C(=O)O)[C@H]3CC[C@@H]2O3)cc1 (stereo partly specified) | 14 | 10 | 0.71 | – | – | –
Cc1cccc(C)c1NC(=O)C1C(C(=O)O)[C@H]2CC[C@@H]1O2 (stereo partly specified) | 72 | 56 | 0.78 | – | – | –
C[C@@]12C(=O)OC(=O)[C@]1(C)[C@H]1CC[C@@H]2O1 [CANTHARIDIN] | 0.99 | 7.6 | 7.7 | > 0.07 | – | > 100

Source: ChEMBL document CHEMBL1137527, “Synthesis and biological evaluation of norcantharidin analogues: towards PP1 selectivity” (Bioorg Med Chem, 2007)
